Source: patent US8956878B2, “Polypeptides with affinity for heat shock proteins (HSPS) and HSP associated complexes (HACS) and their use in diagnosis and therapy” (Atlantic Cancer Research Institute, priority 2011, dated 2015)
Like-named read-outs stand apart in the source and are kept apart here.

Columns and labels:
[1] = target: T1, Recombinant Mycobacterium tuberculosis HSP70 (Mycobacterium tuberculosis, UniProt P9WMJ9); format: binding; conditions: IEF gel, counter migrant
T1 construct: purchased Aalto, Eire

[2] = test system: recombinant A. davidanieli HSP70 (adHSP70); format: binding, Arthrobacter davidanieli; conditions: for CHIEF complex formation with adHSP70: substance as counter migrant to adHSP70
Recombinant murine HSP70 = Recombinant murine HSP70 (Mus musculus, UniProt Q61696); assay: CHIEF against recombinant murine HSP70; format: binding; conditions: 40 μg peptide
[3] = test system: vesicular material from culture medium or biological fluid; assay: Fractionation of vesicular material; conditions: as second peptide portion of the polypeptide
Excerpt: (§1) In another embodiment, the at least one second peptide portion contributes to the selectivity of the affinity of the polypeptide.

[4] = test system: SKBR3 cytoplasmic proteins; assay: CHIEF against SKBR3 cytoplasmic proteins; format: binding; conditions: 7 μg protein per lane
Procedure: MBPWT1 peptide was tested as a counter ion to proteins from breast cancer cell line SKBR3. MBP co-synthesised with survivin peptides were also used as alternative sources of counter ions (FIG. 10).
The increased degree of complex formation observed in FIG. 10 prompted a closer evaluation of MBP co-synthesized with the three chosen survivin peptides 20-28, isoform 3 88-96 and 96-104.

[5] = target: cytoplasmic recombinant human HSP90 (Homo sapiens, UniProt P07900); assay: CHIEF against recombinant human HSP90; format: binding; conditions: IEF gel, counter migrant
rat HSP70 = rat HSP70 (Rattus norvegicus, UniProt P0DMW0); assay: CHIEF against recombinant rat HSP70; format: binding; conditions: 1 μg HSP70, 15 μg peptide
[6] = test system: MDA MB231 cytoplasmic and membrane associated proteins; assay: CHIEF against subcellular fractions of MDA MB231 breast cancer cells; format: binding; conditions: 80 μg peptide, 10 μg subcellular fraction
Procedure: (§2) Abbreviations: φ=No peptide added at anode; MBPWT1, MBP100-117_WT1 117-134; MBP, MBP100-117; WT1, WT1 117-134. All peptides applied at cathode at a concentration of 80 μg (sic); subcellular fractions applied at cathode at a concentration of 10 μg. The arrowheads in lanes 2, 6, 10 (top), 14 and 18 (top) indicate expected CHIEF complex focusing near the 6.8 pl marker. The arrowheads in lanes 10 (bottom) and 18 (bottom) indicate the appearance of a CHIEF complex focusing near the 7.4 pl marker. The arrowheads in lane 5 and 19 (top and bottom) indicate where there has been cross over of the MBP117-134WT1 peptide into an adjacent lane causing a drive-by or swipe CHIEF complex formation (lane 5, lane 19).
(§3) The example investigates the possibility that the bMBPWT1 peptide binds HSPs directly from cell lysates in a similar manner to when single recombinant HSP was used as a counter ion. Cancer cells are addicted to the overexpression of HSPs to support growth under poor environmental conditions, to facilitate the function of otherwise unstable oncoproteins and the ablation of apoptosis. Most, if not all, cancer cells should provide a rich source of human HSPs to serve as complex forming counter migrants for the MBP peptide co-synthesised with WT1 and SW peptides. […]

[7] = test system: Nalm-6 cytoplasmic and membrane associated proteins; assay: CHIEF against subcellular fractions of Nalm-6 leukemia cells; format: binding
Excerpt: as §2, with “All peptides applied at cathode at a concentration of 80 μg (sic); subcellular fractions applied at cathode at a concentration of 10 μg.” left out
Three identical lanes were prepared for the generation of CHIEF complexes between MBP100-117WT1 117-134 (80 μg) and 10 μg of Nalm-6 membrane associated proteins.
as §3

[8] = target: glycoprotein 96 (gp96; canine) (Canis lupus familiaris, UniProt P41148); assay: CHIEF against gp96 (ER isoform of HSP90); format: binding; conditions: IEF gel, counter migrant
human HSP70 = human HSP70 (Homo sapiens, UniProt P0DMV8); assay: CHIEF against recombinant human HSP70; format: binding; conditions: 1 μg HSP70, 15 μg peptide
[9] = test system: HACs from sub-cellular extracts; assay: Fractionation of HACs from sub-cellular extracts; conditions: as second peptide portion of the polypeptide
Excerpt: as §1

MCF7 (breast cancer) = assay: Peptide in extracellular medium of MCF7 cells; format: cell-based; conditions: 7-25 μg/mL in extracellular medium, within 24 hours
Procedure: (§4) The alpha helix and flanking sequences may permit the peptides of the application to resist the protease rich medium of cancer cells, a trait shared by human tissue fluids (e.g. serum). […] Since all major cancer causing species rely upon scaffolding by HSPs for stability and function, the peptides may represent a source of direct therapeutic application.
(§5) When the peptides of the present application were included in the extracellular medium of the cancer cell lines (at concentrations of 7-25 μg/mL) such as PC3 (prostate cancer) and MCF7 (breast cancer), there was an inhibition of the protein synthesis and cell lysis within 24 hours. […] Since all major cancer causing species rely upon scaffolding by HSPs for stability and function, the peptides may represent a source of direct therapeutic application.

PC3 (prostate cancer) = assay: Peptide in extracellular medium of PC3 cells; format: cell-based; conditions: 7-25 μg/mL in extracellular medium, within 24 hours
Procedure: as §4, §5

T1 sequence (P9WMJ9 whole entry): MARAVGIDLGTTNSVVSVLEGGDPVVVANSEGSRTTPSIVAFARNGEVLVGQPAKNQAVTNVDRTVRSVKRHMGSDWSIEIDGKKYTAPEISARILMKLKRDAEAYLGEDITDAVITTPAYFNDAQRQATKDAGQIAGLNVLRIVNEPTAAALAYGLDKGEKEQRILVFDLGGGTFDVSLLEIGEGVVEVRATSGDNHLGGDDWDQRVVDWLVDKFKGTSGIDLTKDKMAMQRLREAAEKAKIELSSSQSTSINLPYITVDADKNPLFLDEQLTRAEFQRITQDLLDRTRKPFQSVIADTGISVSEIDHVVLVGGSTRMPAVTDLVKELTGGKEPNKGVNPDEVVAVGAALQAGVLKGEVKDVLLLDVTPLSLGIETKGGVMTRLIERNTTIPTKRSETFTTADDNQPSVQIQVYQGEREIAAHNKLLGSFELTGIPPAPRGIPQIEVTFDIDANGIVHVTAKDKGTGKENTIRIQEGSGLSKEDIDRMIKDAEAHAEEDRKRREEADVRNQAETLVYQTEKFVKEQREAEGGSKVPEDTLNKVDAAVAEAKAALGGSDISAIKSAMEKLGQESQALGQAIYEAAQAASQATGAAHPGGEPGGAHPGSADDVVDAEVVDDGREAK
Sequence of glycoprotein 96 (gp96; canine) (P41148 22-804): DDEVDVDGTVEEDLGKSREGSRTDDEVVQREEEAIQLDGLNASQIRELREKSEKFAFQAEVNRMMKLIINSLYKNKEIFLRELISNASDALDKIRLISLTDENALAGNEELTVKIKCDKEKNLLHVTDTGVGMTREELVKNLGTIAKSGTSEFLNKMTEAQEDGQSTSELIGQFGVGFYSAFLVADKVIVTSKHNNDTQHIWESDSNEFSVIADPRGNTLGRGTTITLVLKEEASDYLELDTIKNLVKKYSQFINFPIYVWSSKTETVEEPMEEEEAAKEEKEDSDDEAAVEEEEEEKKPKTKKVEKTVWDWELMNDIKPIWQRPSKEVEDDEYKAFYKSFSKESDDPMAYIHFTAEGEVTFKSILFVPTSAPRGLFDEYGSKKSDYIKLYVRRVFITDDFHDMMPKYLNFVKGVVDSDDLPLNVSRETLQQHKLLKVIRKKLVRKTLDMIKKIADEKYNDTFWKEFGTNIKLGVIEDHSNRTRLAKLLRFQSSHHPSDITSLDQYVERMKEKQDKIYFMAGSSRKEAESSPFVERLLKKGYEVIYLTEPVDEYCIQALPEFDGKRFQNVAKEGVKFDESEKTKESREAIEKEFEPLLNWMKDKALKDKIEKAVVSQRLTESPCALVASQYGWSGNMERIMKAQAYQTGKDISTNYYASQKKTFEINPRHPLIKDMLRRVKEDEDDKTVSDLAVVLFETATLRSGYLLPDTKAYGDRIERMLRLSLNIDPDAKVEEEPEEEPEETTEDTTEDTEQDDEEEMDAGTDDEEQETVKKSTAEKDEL
Sequence of rat HSP70 (P0DMW0 whole entry): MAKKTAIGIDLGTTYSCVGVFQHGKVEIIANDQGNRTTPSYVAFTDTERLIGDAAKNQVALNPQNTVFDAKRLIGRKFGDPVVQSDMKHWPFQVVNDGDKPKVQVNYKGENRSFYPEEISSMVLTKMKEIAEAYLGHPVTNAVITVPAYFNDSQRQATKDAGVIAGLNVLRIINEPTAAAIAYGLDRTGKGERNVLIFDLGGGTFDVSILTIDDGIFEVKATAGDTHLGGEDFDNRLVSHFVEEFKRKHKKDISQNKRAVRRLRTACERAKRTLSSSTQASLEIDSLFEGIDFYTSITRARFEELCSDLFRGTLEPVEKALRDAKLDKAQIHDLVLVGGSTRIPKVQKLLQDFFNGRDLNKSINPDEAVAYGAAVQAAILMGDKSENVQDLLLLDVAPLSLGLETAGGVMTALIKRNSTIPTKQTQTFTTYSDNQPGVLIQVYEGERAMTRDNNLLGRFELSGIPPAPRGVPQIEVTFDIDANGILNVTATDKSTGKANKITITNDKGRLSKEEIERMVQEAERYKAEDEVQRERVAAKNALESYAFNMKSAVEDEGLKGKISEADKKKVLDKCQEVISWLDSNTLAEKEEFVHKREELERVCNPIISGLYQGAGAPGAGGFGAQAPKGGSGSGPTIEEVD
Sequence of human HSP70 (P0DMV8 whole entry): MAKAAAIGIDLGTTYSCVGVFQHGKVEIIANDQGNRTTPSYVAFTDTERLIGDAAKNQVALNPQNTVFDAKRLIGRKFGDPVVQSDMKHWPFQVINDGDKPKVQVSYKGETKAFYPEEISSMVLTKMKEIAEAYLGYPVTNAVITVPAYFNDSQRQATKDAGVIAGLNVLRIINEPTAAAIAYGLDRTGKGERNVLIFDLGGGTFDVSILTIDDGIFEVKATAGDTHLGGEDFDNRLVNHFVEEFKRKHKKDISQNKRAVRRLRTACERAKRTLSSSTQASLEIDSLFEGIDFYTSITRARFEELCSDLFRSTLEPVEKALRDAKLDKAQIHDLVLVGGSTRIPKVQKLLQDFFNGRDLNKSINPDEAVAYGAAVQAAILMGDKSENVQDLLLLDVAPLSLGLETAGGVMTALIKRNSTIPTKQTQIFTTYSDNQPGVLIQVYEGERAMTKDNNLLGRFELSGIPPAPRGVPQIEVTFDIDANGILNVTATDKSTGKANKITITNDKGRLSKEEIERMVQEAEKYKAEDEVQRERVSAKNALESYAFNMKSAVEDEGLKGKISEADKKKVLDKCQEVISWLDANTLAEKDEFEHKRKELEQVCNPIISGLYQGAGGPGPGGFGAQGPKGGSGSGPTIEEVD
Sequence of Recombinant murine HSP70 (Q61696 whole entry): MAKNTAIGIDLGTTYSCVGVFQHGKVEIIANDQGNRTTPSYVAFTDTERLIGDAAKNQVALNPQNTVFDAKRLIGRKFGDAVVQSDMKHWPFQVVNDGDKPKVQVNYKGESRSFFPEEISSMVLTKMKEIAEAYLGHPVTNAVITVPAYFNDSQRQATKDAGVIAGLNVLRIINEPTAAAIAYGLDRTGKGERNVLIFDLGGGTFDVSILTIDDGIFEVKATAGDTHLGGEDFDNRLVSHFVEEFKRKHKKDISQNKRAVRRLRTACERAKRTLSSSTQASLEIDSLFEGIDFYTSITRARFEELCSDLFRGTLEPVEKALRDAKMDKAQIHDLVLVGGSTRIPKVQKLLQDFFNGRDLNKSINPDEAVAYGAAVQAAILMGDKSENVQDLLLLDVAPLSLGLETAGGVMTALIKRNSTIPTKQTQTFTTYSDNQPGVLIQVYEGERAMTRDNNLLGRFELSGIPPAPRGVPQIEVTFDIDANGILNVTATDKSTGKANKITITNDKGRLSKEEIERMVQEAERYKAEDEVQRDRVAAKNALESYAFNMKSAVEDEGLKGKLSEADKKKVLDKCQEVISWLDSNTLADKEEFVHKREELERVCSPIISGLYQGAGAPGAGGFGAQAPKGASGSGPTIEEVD

## lysozyme
[1]
  CHIEF complex formation with M. tuberculosis HSP70: complexed
[2]; IEF gel
  CHIEF complex formation with adHSP70: did bind

## histone 2A
[2]; IEF gel
  CHIEF complex formation with adHSP70: yielded an identical complex

## carbonic anhydrase
[2]; IEF gel
  CHIEF complex formation with adHSP70: did not interact

## WT1 117-134: Wilms tumor protein 1 peptide 117-134 (PSQASSGQARMFPNAPYL) [reference compound]
[2]; IEF gel
  CHIEF complex formation with adHSP70: no evidence of binding
[2]; IEF gel, listed as WT1
  CHIEF complex formation with adHSP70: limited complex formation

## PSQGKGRGLSLSRFSWGA (listed as Bos taurus) [SEQ ID NO: 2]
Recombinant murine HSP70
  CHIEF complex formation with murine HSP70: complexed
[1]; listed as 100-117
  CHIEF complex formation with M. tuberculosis HSP70: produced counter ion complexes
[1]; listed as MBP peptide
  CHIEF complex formation with M. tuberculosis HSP70: counter migrant complex formed
[2]; 100 μg peptide, 2 μg adHSP70
  effect of high peptide concentration on complex formation with adHSP70: appears to inhibit complex formation
[2]; IEF gel, listed as 100-117
  CHIEF complex formation with adHSP70: produced counter ion complexes
[2]; IEF gel, listed as MBP 100-117
  CHIEF complex formation with adHSP70: binding
[2]; IEF gel, listed as MBP peptide
  CHIEF complex formation with adHSP70: far more limited complex formation

## LTLGEFLKL (listed as Homo sapiens) [SEQ ID NO: 8]
[3]
  efficiency of fractionating vesicular material: more efficient

## MBPWT1: MBP peptide 100-117 co-synthesised with Wilms tumor protein 1 peptide 117-134 (PSQGKGRGLSLSRFSWGAPSQASSGQARMFPNAPYL)
[4]
  CHIEF complex formation with SKBR3 proteins: Small counter migrant complexes formed
[5]
  CHIEF complex formation with human HSP90: produced complexes
Rat HSP70
  CHIEF complex formation with rat HSP70: Some evidence of counter migrant complex formation
[6]
  CHIEF complex formation with MDA MB231 cytoplasmic proteins: yielded similar CHIEF complexes
[7]; 80 μg peptide, 10 μg subcellular fraction
  CHIEF complex formation with Nalm-6 cytoplasmic proteins: yielded similar CHIEF complexes
[7]; concentrations below 80 μg
  CHIEF complex formation with Nalm-6 proteins at lower peptide amount: occasionally produced only modest complexes
[8]
  CHIEF complex formation with gp96: produced complexes
Human HSP70
  CHIEF complex formation with human HSP70: Some evidence of counter migrant complex formation
[2]; IEF gel
  CHIEF complex formation with adHSP70: appeared to augment the formation of the complex

## myoglobin
[2]; IEF gel
  CHIEF complex formation with adHSP70: did not interact

## trypsinogen
[2]; IEF gel
  CHIEF complex formation with adHSP70: did not interact

## MBP 62-78: candidate binding peptide, residues 62-78 of bovine myelin basic protein (ARTTHYGSLPQKAQGHR)
[2]; IEF gel
  CHIEF complex formation with adHSP70: negligible binding

## LRRKCAVPS (listed as Homo sapiens) [SEQ ID NO: 9]
[9]
  efficiency of fractionating HACs from sub-cellular extracts: more efficiently fractionated

## PSQGKGRGLSLSRFSWGALRRKCAVPS [SEQ ID NO: 66]
[4]
  CHIEF complex formation with SKBR3 proteins: much larger band formed
MCF7 (breast cancer)
  effect on protein synthesis and cell lysis, MCF7: drastic inhibition of protein synthesis and cell lysis
PC3 (prostate cancer)
  effect on protein synthesis and cell lysis, PC3: drastic inhibition of protein synthesis and cell lysis

B1: Bovine myelin basic protein (protein)
chain: AAQKRPSQRSKYLASASTMDHARHGFLPRHRDTGILDSLGRFFGSDRGAPKRGSGKDGHHAARTTHYGSLPQKAQGHRPQDENPVVHFFKNIVTPRTPPPSQGKGRGLSLSRFSWGAEGQKPGFGYGGRASDYKSAHKGLKGHDAQGTLSKIFKLGGRDSRSGSPMARR
[1]
  CHIEF complex formation with M. tuberculosis HSP70: complexed
[2]; IEF gel
  focusing position (pI marker) of CHIEF complex with adHSP70: ~6.5
  CHIEF complex formation with adHSP70: bound
[2]; IEF gel, listed as MBP
  CHIEF complex formation with adHSP70: binding
